The compounds below were run against T1, Tyrosine-protein phosphatase non-receptor type 22 (Homo sapiens, UniProt Q9Y2R2) (assay: LYP phosphatase inhibitors, dose response, biochemical, fluorescence intensity, uHTS hits, set 2 (AID 435024)).
T1 sequence (Q9Y2R2 whole entry): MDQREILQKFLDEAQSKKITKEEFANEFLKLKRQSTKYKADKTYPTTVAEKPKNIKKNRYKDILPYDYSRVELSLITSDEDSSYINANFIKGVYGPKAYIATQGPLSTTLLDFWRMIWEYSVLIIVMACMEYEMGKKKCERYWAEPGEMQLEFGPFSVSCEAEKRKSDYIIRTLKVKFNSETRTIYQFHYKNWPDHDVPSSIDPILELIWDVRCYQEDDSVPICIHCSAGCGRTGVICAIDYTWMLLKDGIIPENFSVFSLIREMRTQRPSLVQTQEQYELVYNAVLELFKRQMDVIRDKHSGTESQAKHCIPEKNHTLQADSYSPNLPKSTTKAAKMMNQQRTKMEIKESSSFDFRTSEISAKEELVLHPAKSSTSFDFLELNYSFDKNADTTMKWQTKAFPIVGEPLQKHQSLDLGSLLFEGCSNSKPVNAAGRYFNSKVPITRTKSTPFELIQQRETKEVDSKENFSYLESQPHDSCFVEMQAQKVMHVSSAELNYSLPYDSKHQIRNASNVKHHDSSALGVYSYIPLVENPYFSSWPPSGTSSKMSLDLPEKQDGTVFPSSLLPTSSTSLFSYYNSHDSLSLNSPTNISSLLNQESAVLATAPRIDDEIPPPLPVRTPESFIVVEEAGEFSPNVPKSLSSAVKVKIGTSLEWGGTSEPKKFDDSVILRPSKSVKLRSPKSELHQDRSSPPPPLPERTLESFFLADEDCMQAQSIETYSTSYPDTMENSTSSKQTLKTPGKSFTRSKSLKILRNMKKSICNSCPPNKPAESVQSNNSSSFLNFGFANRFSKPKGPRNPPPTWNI

Structure (SMILES) | IC50
N=C(NN=Cc1ccc2c(c1)OCO2)Sc1cc(O)n(-c2ccc(C(=O)O)cc2)c1O [4-(3-{[[(2E)-2-(1,3-benzodioxol-5-ylmethylene)hydrazino](imino)methyl]thio}-2,5-dioxopyrrolidin-1-yl)benzoic acid] | 8.58 µM
Cc1ccc(NN=C2C(=O)N(CN3CCOCC3)c3ccccc32)cc1 [(3Z)-3-[(4-methylphenyl)hydrazinylidene]-1-(4-morpholinylmethyl)-2-indolone] | > 79.4 µM
O=C1C([N+](=O)[O-])=CC(Br)=CC1/C=N/n1cnnc1 (stereo not given) [MLS000714804] | > 79.4 µM

Further lines, results first:

IC50 | Structure (SMILES)
13.1 µM | COC1=CC=CC(/C=N/NC(=O)c2cc3cc([N+](=O)[O-])ccc3s2)C1=O (stereo not given) [SMR000237814]
> 79.4 µM | CCOC(=O)NC(=O)C(C=Nc1ccc(C)cc1)C(=O)NC(=O)OCC [ethyl 2-{[(ethoxycarbonyl)amino]carbonyl}-3-(4-toluidino)acryloylcarbamate]

Reference: BindingDB's records for doi:10.7270/Q2CR5RTC (Burnham Center For Chemical Genomics, 2010)
